Data on 17 compounds can be found in patent US20230133580A1, “MENTHOL-CONTAINING COMPOSITION” (SUNSHO PHARMACEUTICAL CO., LTD., priority 2020, published 2023).

Structures can show the parent of a compound that is named as a salt.

Data set [1] in a line: l-Menthol dissolution test. The settings on record: for Dissolution: stored at 20° C. The data set is classed as physicochemical. How it is done:
The solution was stored at 20° C. and evaluated based on the time during which the solution was maintained in a liquid state without solidifying.
A sample that solidified before being cooled down to 20° C. [e.g., during the process of cooling down to a temperature below the melting point of l-menthol (generally 42 to 45° C.)] or immediately (e.g., within 30 minutes) after being stored at 20° C. was rated D. A sample that was maintained as a solution for a while (e.g., more than 30 minutes) but solidified in less than 24 hours was rated C.

Data set [2] is described as follows: Encapsulation test C (interfacial tension against purified water). The data set is classed as physicochemical. How it is done: The interfacial tension was measured with the force tensiometer SIGMA 702 (KSV Instruments LTD).
Where [3] appears, read: menthol concentration ranging 60 to 50 wt %.
Where [4] appears, read: menthol concentration ranging 70 to 50 wt %.

For `CCCC(=O)OCC(COC(=O)CCC)OC(=O)CCC` [Tributyrin], the Dissolution result in data set [1] (l-Menthol 50, solvent 50 pbw) is given as “B (A sample that solidified in 24 hours or more but less than 10 days was rated B)”; in data set [1] (l-Menthol 60, solvent 40 pbw) it was “C (A sample that was maintained as a solution for a while (e.g., more than 30 minutes) but solidified in less than 24 hours was rated C)”; in data set [1] (l-Menthol 70, solvent 30 pbw), “C (A sample that was maintained as a solution for a while (e.g., more than 30 minutes) but solidified in less than 24 hours was rated C)”. Moreover, in data set [1] (menthol concentration of 50%), the “ability to dissolve menthol (rating)” value is listed as “B (A sample that solidified in 24 hours or more but less than 10 days was rated B)”.
With `CCCCOCCOCCOCCCC` [Diethylene glycol dibutyl ether], the Dissolution result in data set [1] (l-Menthol 50, solvent 50 pbw) was “A (A sample that did not solidify in 10 days or more was rated A)”; in data set [1] (l-Menthol 60, solvent 40 pbw), “A (A sample that did not solidify in 10 days or more was rated A)”; in data set [1] (l-Menthol 70, solvent 30 pbw), “C (A sample that was maintained as a solution for a while (e.g., more than 30 minutes) but solidified in less than 24 hours was rated C)”. The “ability to dissolve menthol (rating)” value in data set [1] (setting [3]) is “A (A sample that did not solidify in 10 days or more was rated A)”.
For `CCCCCCCCCCCCCCCC(=O)OCC` [Ethyl palmitate], the Dissolution result is “B (A sample that solidified in 24 hours or more but less than 10 days was rated B)” in data set [1] (l-Menthol 50, solvent 50 pbw); “B (A sample that solidified in 24 hours or more but less than 10 days was rated B)” in data set [1] (l-Menthol 60, solvent 40 pbw); “C (A sample that was maintained as a solution for a while (e.g., more than 30 minutes) but solidified in less than 24 hours was rated C)” in data set [1] (l-Menthol 70, solvent 30 pbw). Moreover, the “ability to dissolve menthol (rating)” value in data set [1] (setting [3]) is reported as “B (A sample that solidified in 24 hours or more but less than 10 days was rated B)”.
As for `CCOC(=O)/C=C/C(=O)OCC` [Diethyl fumarate], the Dissolution result in data set [1] (l-Menthol 50, solvent 50 pbw) was “A (A sample that did not solidify in 10 days or more was rated A)”; in data set [1] (l-Menthol 60, solvent 40 pbw), “A (A sample that did not solidify in 10 days or more was rated A)”; in data set [1] (l-Menthol 70, solvent 30 pbw), “C (A sample that was maintained as a solution for a while (e.g., more than 30 minutes) but solidified in less than 24 hours was rated C)”. Moreover, in data set [1] (setting [3]), the “ability to dissolve menthol (rating)” value is “A (A sample that did not solidify in 10 days or more was rated A)”.
Consider `CCCCCCCCCCCC(=O)OCC` [Ethyl laurate], for which the Dissolution result in data set [1] (l-Menthol 50, solvent 50 pbw) is “A (A sample that did not solidify in 10 days or more was rated A)”; in data set [1] (l-Menthol 60, solvent 40 pbw) it was “A (A sample that did not solidify in 10 days or more was rated A)”; in data set [1] (l-Menthol 70, solvent 30 pbw), “C (A sample that was maintained as a solution for a while (e.g., more than 30 minutes) but solidified in less than 24 hours was rated C)”. Further, the “ability to dissolve menthol (rating)” value in data set [1] (setting [3]) was “A (A sample that did not solidify in 10 days or more was rated A)”.
Regarding `CCOC(=O)CCC(=O)OCC` [Diethyl succinate], the Dissolution entry is listed as “A (A sample that did not solidify in 10 days or more was rated A)” in data set [1] (l-Menthol 50, solvent 50 pbw); “A (A sample that did not solidify in 10 days or more was rated A)” in data set [1] (l-Menthol 60, solvent 40 pbw); “A (A sample that did not solidify in 10 days or more was rated A)” in data set [1] (l-Menthol 70, solvent 30 pbw); “C (A sample that was maintained as a solution for a while (e.g., more than 30 minutes) but solidified in less than 24 hours was rated C)” in data set [1] (l-Menthol 80, solvent 20 pbw). Further, in data set [1] (setting [4]), the “ability to dissolve menthol (rating)” value is recorded as “A or B”. The same compound returned an interfacial tension in data set [2] (against purified water, samples containing 80 to 50 wt % l-menthol) of at least 5 mN/m. Moreover, the Interfacial tension rating entry in data set [2] (l-Menthol 50, solvent 50 pbw) is “A (a sample having an interfacial tension of 5 mN/m or more was rated A)”; in data set [2] (l-Menthol 60, solvent 40 pbw) it was “A (a sample having an interfacial tension of 5 mN/m or more was rated A)”; in data set [2] (l-Menthol 70, solvent 30 pbw) it was “A (a sample having an interfacial tension of 5 mN/m or more was rated A)”; in data set [2] (l-Menthol 80, solvent 20 pbw), “A (a sample having an interfacial tension of 5 mN/m or more was rated A)”.
On to `O=C(OCc1ccccc1)c1ccccc1` [Benzyl benzoate], for which the Dissolution entry is on record as “B (A sample that solidified in 24 hours or more but less than 10 days was rated B)” in data set [1] (l-Menthol 50, solvent 50 pbw); “C (A sample that was maintained as a solution for a while (e.g., more than 30 minutes) but solidified in less than 24 hours was rated C)” in data set [1] (l-Menthol 60, solvent 40 pbw); “C (A sample that was maintained as a solution for a while (e.g., more than 30 minutes) but solidified in less than 24 hours was rated C)” in data set [1] (l-Menthol 70, solvent 30 pbw). The “ability to dissolve menthol (rating)” value in data set [1] (menthol concentration of 50%) is listed as “B (A sample that solidified in 24 hours or more but less than 10 days was rated B)”.
On to `CCCCCCCCCC(=O)OCC` [Ethyl decanoate], for which the Dissolution entry in data set [1] (l-Menthol 50, solvent 50 pbw) is given as “A (A sample that did not solidify in 10 days or more was rated A)”; in data set [1] (l-Menthol 60, solvent 40 pbw), “A (A sample that did not solidify in 10 days or more was rated A)”; in data set [1] (l-Menthol 70, solvent 30 pbw), “C (A sample that was maintained as a solution for a while (e.g., more than 30 minutes) but solidified in less than 24 hours was rated C)”. For the same compound, in data set [1] (setting [3]), the “ability to dissolve menthol (rating)” value was “A (A sample that did not solidify in 10 days or more was rated A)”.
On to `CC(C)COC(=O)CCCCC(=O)OCC(C)C` [Diisobutyl adipate], for which the Dissolution result is recorded as “A (A sample that did not solidify in 10 days or more was rated A)” in data set [1] (l-Menthol 50, solvent 50 pbw); “A (A sample that did not solidify in 10 days or more was rated A)” in data set [1] (l-Menthol 60, solvent 40 pbw); “A (A sample that did not solidify in 10 days or more was rated A)” in data set [1] (l-Menthol 70, solvent 30 pbw); “C (A sample that was maintained as a solution for a while (e.g., more than 30 minutes) but solidified in less than 24 hours was rated C)” in data set [1] (l-Menthol 80, solvent 20 pbw). In addition, the “ability to dissolve menthol (rating)” value in data set [1] (setting [4]) is recorded as “A (A sample that did not solidify in 10 days or more was rated A)”.
As for `CCOCCOCC` [1,2-Diethoxyethane], the Dissolution entry in data set [1] (l-Menthol 50, solvent 50 pbw) is “A (A sample that did not solidify in 10 days or more was rated A)”; in data set [1] (l-Menthol 60, solvent 40 pbw) it was “A (A sample that did not solidify in 10 days or more was rated A)”; in data set [1] (l-Menthol 70, solvent 30 pbw), “A (A sample that did not solidify in 10 days or more was rated A)”. Further, the “ability to dissolve menthol (rating)” value in data set [1] (setting [4]) is “A (A sample that did not solidify in 10 days or more was rated A)”.
As for `CC(=O)OCCCCCCCCOC(C)=O` [1,8-Diacetoxyoctane], the Dissolution entry is “A (A sample that did not solidify in 10 days or more was rated A)” in data set [1] (l-Menthol 50, solvent 50 pbw); “C (A sample that was maintained as a solution for a while (e.g., more than 30 minutes) but solidified in less than 24 hours was rated C)” in data set [1] (l-Menthol 60, solvent 40 pbw); “C (A sample that was maintained as a solution for a while (e.g., more than 30 minutes) but solidified in less than 24 hours was rated C)” in data set [1] (l-Menthol 70, solvent 30 pbw). Besides, the “ability to dissolve menthol (rating)” value in data set [1] (menthol concentration of 50%) is “A (A sample that did not solidify in 10 days or more was rated A)”.
With `OCc1ccccc1` [Benzyl alcohol], in data set [1] (l-Menthol 80, solvent 20 pbw), the Dissolution entry is given as “A (A sample that did not solidify in 10 days or more was rated A)”.
Take `CC(=O)OCCCCCCOC(C)=O` [1,6-Diacetoxyhexane]: the Dissolution result is “A (A sample that did not solidify in 10 days or more was rated A)” in data set [1] (l-Menthol 50, solvent 50 pbw); “A (A sample that did not solidify in 10 days or more was rated A)” in data set [1] (l-Menthol 60, solvent 40 pbw); “C (A sample that was maintained as a solution for a while (e.g., more than 30 minutes) but solidified in less than 24 hours was rated C)” in data set [1] (l-Menthol 70, solvent 30 pbw). The “ability to dissolve menthol (rating)” value in data set [1] (setting [3]) is “A (A sample that did not solidify in 10 days or more was rated A)”.
Regarding `CCNCCCCCCNCC` [N,N′-diethyl-1,6-hexanediamine], the Dissolution result in data set [1] (l-Menthol 50, solvent 50 pbw) is “A (A sample that did not solidify in 10 days or more was rated A)”; in data set [1] (l-Menthol 60, solvent 40 pbw) it was “A (A sample that did not solidify in 10 days or more was rated A)”; in data set [1] (l-Menthol 70, solvent 30 pbw) it was “A (A sample that did not solidify in 10 days or more was rated A)”. The “ability to dissolve menthol (rating)” value in data set [1] (setting [4]) is “A (A sample that did not solidify in 10 days or more was rated A)”.
Regarding `CCCCOCCOCCCC` [Ethylene glycol dibutyl ether], the Dissolution result is given as “A (A sample that did not solidify in 10 days or more was rated A)” in data set [1] (l-Menthol 50, solvent 50 pbw); “A (A sample that did not solidify in 10 days or more was rated A)” in data set [1] (l-Menthol 60, solvent 40 pbw); “A (A sample that did not solidify in 10 days or more was rated A)” in data set [1] (l-Menthol 70, solvent 30 pbw). For the same compound, the “ability to dissolve menthol (rating)” value in data set [1] (setting [4]) is reported as “A (A sample that did not solidify in 10 days or more was rated A)”.
Consider `CCOC(=O)CC(O)(CC(=O)OCC)C(=O)OCC` [Triethyl citrate], for which the Dissolution entry in data set [1] (l-Menthol 50, solvent 50 pbw) is listed as “C (A sample that was maintained as a solution for a while (e.g., more than 30 minutes) but solidified in less than 24 hours was rated C)”; in data set [1] (l-Menthol 60, solvent 40 pbw), “C (A sample that was maintained as a solution for a while (e.g., more than 30 minutes) but solidified in less than 24 hours was rated C)”; in data set [1] (l-Menthol 70, solvent 30 pbw), “C (A sample that was maintained as a solution for a while (e.g., more than 30 minutes) but solidified in less than 24 hours was rated C)”.
For `CC(=O)OCCOC(C)=O` [Ethylene glycol diacetate], the Dissolution result is “C (A sample that was maintained as a solution for a while (e.g., more than 30 minutes) but solidified in less than 24 hours was rated C)” in data set [1] (l-Menthol 50, solvent 50 pbw); “C (A sample that was maintained as a solution for a while (e.g., more than 30 minutes) but solidified in less than 24 hours was rated C)” in data set [1] (l-Menthol 60, solvent 40 pbw); “C (A sample that was maintained as a solution for a while (e.g., more than 30 minutes) but solidified in less than 24 hours was rated C)” in data set [1] (l-Menthol 70, solvent 30 pbw).
